These are literature values, as cited in patent US20060264388A1, “Method for treating liver cancer by intrahepatic administration of nemorubicin” (priority 2003, published 2006).

Where a name gives a salt, the structure may show the parent alone.

The subject of this series is metastatic colorectal cancer. As to conditions: after failure of 5-FU leucovorin; cited from earlier work.

For `CCc1c2c(nc3ccc(OC(=O)N4CCC(N5CCCCC5)CC4)cc13)-c1cc3c(c(=O)n1C2)COC(=O)[C@]3(O)CC` [Irinotecan hydrochloride trihydrate], the median survival time result is on record as “approximately 9 months” and the response rate is reported as 15%.
